ChEMBL document CHEMBL1148842, “Discovery of novel, non-acidic 1,5-biaryl pyrrole EP1 receptor antagonists” (Bioorg Med Chem Lett, 2007)

What follows are molecules tested against T1, Prostaglandin E2 receptor EP1 subtype (Homo sapiens, UniProt P34995) (assay: Displacement of [3H]PGE2 from human recombinant EP1 receptor expressed in CHO cells).
T1 sequence (P34995 whole entry): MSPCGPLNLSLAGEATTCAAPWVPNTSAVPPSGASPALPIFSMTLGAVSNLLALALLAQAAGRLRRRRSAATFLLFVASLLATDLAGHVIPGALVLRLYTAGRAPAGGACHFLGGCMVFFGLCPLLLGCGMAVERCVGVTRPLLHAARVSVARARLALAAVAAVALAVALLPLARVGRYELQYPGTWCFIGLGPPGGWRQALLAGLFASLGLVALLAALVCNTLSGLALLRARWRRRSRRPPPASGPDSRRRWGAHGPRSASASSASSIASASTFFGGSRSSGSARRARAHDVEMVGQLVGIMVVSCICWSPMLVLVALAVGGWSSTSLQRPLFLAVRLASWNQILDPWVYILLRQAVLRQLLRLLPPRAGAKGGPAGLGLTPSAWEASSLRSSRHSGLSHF
Format: cell-based

Row | IC50 [nM] | SMILES
1 | 20 | CNC(=O)c1cccc(-n2c(C)ccc2-c2cc(Br)ccc2OCc2ccc(F)cc2F)c1
2 | 10 | Cc1ccc(-c2cc(Br)ccc2OCc2ccc(F)cc2F)n1-c1cccc(C(=O)N(C)C)c1
3 | 2.51 | Cc1ccc(-c2cc(Cl)ccc2OCc2ccccc2)n1-c1ccc(C(=O)NCc2ccccn2)cc1
4 | 2.51 | Cc1ccc(-c2cc(Cl)ccc2OCc2ccccc2)n1-c1cccc(C(=O)NS(=O)(=O)c2ccccc2)c1
5 | 2.51 | Cc1ccc(-c2ccccc2OCc2ccccc2)n1-c1cccc(C(=O)NS(=O)(=O)c2ccccc2)c1
6 | 63.1 | Cc1ccc(-c2cc(Cl)ccc2OCc2ccccc2)n1-c1ccc(C(=O)NCc2ccncc2)cc1
7 | 7.94 | Cc1ccc(-c2cc(Cl)ccc2OCc2ccccc2)n1-c1ccc(S(=O)(=O)NC(=O)c2ccccc2)cc1
8 | 25.1 | Cc1ccc(-c2cc(Br)ccc2OCc2ccc(F)cc2F)n1-c1cccc(C(O)(C(F)(F)F)C(F)(F)F)c1
9 | > 1000 | Cc1ccc(-c2ccccc2OCc2ccccc2)n1-c1cccc(S(C)(=O)=O)c1
10 | 126 | Cc1ccc(-c2cc(Cl)ccc2OCc2ccccc2)n1-c1cccc(S(C)(=O)=O)c1
11 | 200 | Cc1ccc(-c2cc(Br)ccc2OCc2ccccc2)n1-c1cccc(S(C)(=O)=O)c1
12 | 20 | Cc1ccc(-c2cc(Cl)ccc2OCc2ccccc2)n1-c1ccc(S(C)(=O)=O)cc1
13 | 31.6 | Cc1ccc(-c2cc(Br)ccc2OCc2ccccc2)n1-c1ccc(S(C)(=O)=O)cc1
14 | 7.94 | Cc1ccc(-c2cc(Br)ccc2OCc2ccc(F)cc2F)n1-c1ccc(C(N)=O)cc1
15 | 3.98 | CNC(=O)c1ccc(-n2c(C)ccc2-c2cc(Br)ccc2OCc2ccc(F)cc2F)cc1
16 | 15.8 | Cc1ccc(-c2cc(Br)ccc2OCc2ccc(F)cc2F)n1-c1ccc(C(=O)N(C)C)cc1
17 | 25.1 | Cc1ccc(-c2cc(Cl)ccc2OCc2ccccc2)n1-c1cccc(C(=O)NCc2ccccc2)c1
18 | 63.1 | Cc1ccc(-c2cc(Cl)ccc2OCc2ccccc2)n1-c1cccc(C(=O)NCc2cccnc2)c1
19 | 63.1 | Cc1ccc(-c2cc(Cl)ccc2OCc2ccccc2)n1-c1cccc(C(=O)NCc2ccncc2)c1
20 | 63.1 | Cc1ccc(-c2cc(Br)ccc2OCc2ccc(F)cc2F)n1-c1cccc(-c2nc3ccccc3[nH]2)c1
21 | 39.8 | Cc1nnc(-c2cccc(-n3c(C)ccc3-c3cc(Br)ccc3OCc3ccc(F)cc3F)c2)o1
22 | 200 | Cc1nc(-c2cccc(-n3c(C)ccc3-c3cc(Br)ccc3OCc3ccc(F)cc3F)c2)no1
23 | 63.1 | CC(=O)Nc1cccc(-n2c(C)ccc2-c2cc(Cl)ccc2OCc2ccccc2)c1
24 | 39.8 | Cc1ccc(-c2cc(Br)ccc2OCc2ccc(F)cc2F)n1-c1ccc(-c2cnc[nH]2)cc1
25 | 1.58 | Cc1ccc(-c2cc(Cl)ccc2OCc2ccccc2)n1-c1ccc(C(=O)N[C@H](C)c2ccccc2)cc1
26 | 158 | Cc1ccc(-c2cc(Br)ccc2OCc2ccc(F)cc2F)n1-c1ccc2c(c1)C(=O)NC2=O

Row | IC50 [nM] | SMILES
27 | 631 | Cc1ccc(-c2ccccc2OCc2ccc(F)cc2F)n1-c1ccc2nn[nH]c2c1
28 | 25.1 | Cc1ccc(-c2cc(Cl)ccc2OCc2ccccc2)n1-c1ccc2nn[nH]c2c1
29 | 50.1 | CCN(CC)C(=O)c1ccc(-n2c(C)ccc2-c2cc(Br)ccc2OCc2ccc(F)cc2F)cc1
30 | 25.1 | Cc1ccc(-c2cc(Cl)ccc2OCc2ccccc2)n1-c1ccc(C(=O)NCc2ccccc2)cc1
31 | 39.8 | Cc1ccc(-c2cc(Cl)ccc2OCc2ccccc2)n1-c1ccc2cn[nH]c2c1
32 | 126 | Cc1ccc(-c2cc(Br)ccc2OCc2ccc(F)cc2F)n1-c1cccc(-c2cccnc2)c1
33 | 251 | Cc1ccc(-c2cc(Br)ccc2OCc2ccc(F)cc2F)n1-c1cccc(-c2ccccn2)c1
34 | 5.01 | Cc1ccc(-c2cc(Cl)ccc2OCc2ccccc2)n1-c1ccc(C(=O)N[C@@H](C)c2ccccc2)cc1
35 | 316 | Cc1ccc(-c2cc(Cl)ccc2OCc2ccccc2)n1-c1cccc(C(=O)N[C@@H](C)c2ccccc2)c1
36 | 3.98 | Cc1ccc(-c2cc(Br)ccc2OCc2ccc(F)cc2F)n1-c1cccc(C(=O)NS(C)(=O)=O)c1
37 | 5.01 | Cc1noc(C)c1S(=O)(=O)NC(=O)c1cccc(-n2c(C)ccc2-c2ccccc2OCc2ccccc2)c1
38 | 501 | Cc1ccc(-c2cc(Cl)ccc2OCc2ccccc2)n1-c1ccc(-n2cncn2)cc1
39 | 501 | Cc1ccc(-c2cc(Br)ccc2OCc2ccc(F)cc2F)n1-c1cccc(C(=O)Nc2ccccc2)c1
40 | 39.8 | Cc1ccc(-c2cc(Cl)ccc2OCc2ccccc2)n1-c1cccc(C(=O)N[C@H](C)c2ccccc2)c1
41 | 39.8 | Cc1ccc(-c2cc(Cl)ccc2OCc2ccccc2)n1-c1ccc2[nH]ncc2c1
42 | 20 | Cc1ccc(-c2cc(Cl)ccc2OCc2ccccc2)n1-c1ccc(S(N)(=O)=O)cc1
43 | 501 | Cc1ccc(-c2ccccc2OCc2ccc(F)cc2F)n1-c1cccc(C(N)=O)c1
44 | 63.1 | Cc1ccc(-c2cc(Cl)ccc2OCc2ccccc2)n1-c1cccc(C(N)=O)c1
45 | 126 | Cc1ccc(-c2cc(Br)ccc2OCc2ccc(F)cc2F)n1-c1cccc(-c2ncccn2)c1
46 | 79.4 | Cc1ccc(-c2cc(Cl)ccc2OCc2ccccc2)n1-c1cccc(S(=O)(=O)NC(=O)c2ccccc2)c1
47 | 50.1 | Cc1ccc(-c2cc(Cl)ccc2OCc2ccccc2)n1-c1cccc(C(=O)NCc2ccccn2)c1
48 | 12.6 | Cc1ccc(-c2cc(Cl)ccc2OCc2ccccc2)n1-c1ccc(C(=O)NCc2cccnc2)cc1
49 | 63.1 | Cc1cc(=O)[nH]c2cc(-n3c(C)ccc3-c3cc(Cl)ccc3OCc3ccccc3)ccc12
50 | 15.8 | Cc1ccc(-c2cc(Br)ccc2OCc2ccc(F)cc2F)n1-c1ccc(C(=O)NC(C)(C)C)cc1
51 | 501 | Cc1ccc(-c2ccccc2OCc2ccccc2)n1-c1ccc(S(C)(=O)=O)cc1
